Measurements: patent US20160053026A1, “METHODS FOR TREATING INFECTION BY HPV” (STC.UNM, priority 2011, published 2016)

Assays:
p-ERK1/2 = experiment: Immunoblot for p-ERK1/2 (MAPK signaling) after EGF stimulation in HPV[+] and HPV[−] keratinocytes; format: cell-based, human; conditions: cetuximab 100 μg/mL or PD98059 25 μM; 10 ng/mL EGF in SFM, 5 or 15 minutes; SG3 (HPV16[+]) and NIKS (HPV[−]) cells
Experimental: (§1) FIG. 5. […] Mock=No EGF. Cell lysates were harvested and subjected to SDS-PAGE and immunoblot for p-EGFR, total EGFR, p-ERK1/2 and GAPDH, a loading control.
(§2) Western blot was performed (FIG. 5) and cell viability determined with MTT assay and clonogenic assays performed as described (FIG. 7) (Meira et al., 2009, Euro J Cancer 45:1265-1273).

EGFR = experiment: Immunoblot for p-EGFR after EGF stimulation in HPV[+] and HPV[−] keratinocytes; format: cell-based, human; conditions: cetuximab 100 μg/mL or PD98059 25 μM; 10 ng/mL EGF in SFM, 5 or 15 minutes; SG3 (HPV16[+]) and NIKS (HPV[−]) cells
Experimental: as §1, §2

HPV16 E1^E4 early mRNA = experiment: RT-qPCR of HPV16 E1^E4 early mRNA in HPV[+] HFK cells; format: cell-based; conditions: cetuximab 100 μg/mL or PD98059 25 μM, 24-96 hours
Experimental: HPV16 E1̂E4 early mRNA levels in response to treatment with EGFR or MAPK inhibitors. […] Total RNA harvested at indicated time points was subjected to RT and then to qPCR for β-actin and HPV16 E1̂E4 quantification. […] Data are the result of two separate experiments.
Total RNA harvested at 24 hours, 48 hours, 72 hours, or 96 hours was subjected to RT and then to qPCR for β-actin and HPV16 E1̂E4 quantification.
(§5) TURBO DNA-free Kit (Ambion) to remove co-purifying viral and cellular DNA. Reverse transcription (RT) of total RNAs (0.2-0.5 μg) was performed using random hexamer primers and ABI reagents (Applied Biosystems). For quantitative PCR (qPCR), 2 μl of each cDNA or total DNA was analyzed in triplicate using the SYBR Green I kit on the iCycler (Bio-Rad Laboratories, Inc., Hercules, Calif.).

[1] = system: HPV[+] human keratinocytes; experiment: MTT cell viability assay, HPV[+] cells; format: cell-based; conditions: cetuximab 50, 100, 200 μg/mL; PD98059 12.5, 25, 50 μM; MTT after 72 hours (seven days)
Experimental: (§3) FIG. 7. […] The boxes indicate the same concentrations used in the FIG. 3 and FIG. 5. MTT assays were performed to assess cell viability. Error bars represent SEM (N=3).
as §2
(§4) The proliferative capacity of MAPK inhibitor-treated cells compared to untreated cells was measured by MTT assay after 72 hours to determine the surviving fractions (FIG. 7).

HPV16 viral genome = experiment: qPCR of HPV16 LCR (viral genome number) in HPV[+] HFK cells; format: cell-based; conditions: cetuximab 100 μg/mL or PD98059 25 μM, two to six days after treatment
Description: Response of HPV16 viral genome number to EGFR or MAPK Inhibitors. […] Total DNA harvested at indicated time points was subjected to qPCR for HPV16 LCR quantification. […] Data are the result of 2 separate experiments. (* p<0.05, ** p<0.01).
Total DNA harvested at two days, three days, four days, five days, or six days after treatment was subjected to qPCR (SYBR Green I kit on the BioRad iCycler) for HPV16 LCR quantification. […] Total RNAs were extracted from cells using TRIzol (Invitrogen), and processed with the
as §5

[2] = system: HPV[−] human keratinocytes; experiment: MTT cell viability assay, HPV[−] cells; format: cell-based; conditions: cetuximab 50, 100, 200 μg/mL; PD98059 12.5, 25, 50 μM; MTT after 72 hours (seven days)
Experimental: as §3, §2, §4

Structure (SMILES): COc1cccc(-c2cc(=O)c3ccccc3o2)c1N [PD98059]
- downstream / MAPK signaling (p-ERK1/2) (p-ERK1/2): blocked MAPK signaling
- EGFR activation (p-EGFR) (EGFR): did not affect EGFR activation
- HPV16 E1^E4 transcript levels (HPV16 E1^E4 early mRNA): decrease is statistically significant after 48 hours of treatment
- viability of HPV[+] cells (MTT) [1]: dose-dependent decrease in viability
- HPV16 genome levels (LCR qPCR) compared to mock treated (HPV16 viral genome): statistically significant decrease in HPV16 genome levels
- viability of HPV[−] cells (MTT) [2]: dose-dependent decrease in viability
